Measured values as given in the supplement of paper PMC3974653.
Structures can show the parent of a compound that is named as a salt.

What follows are compounds tested on MTT (mouse pheochromocytoma) (assay: IC50 of cell viability (ATP content)). Conditions: (24 or 48 h).
In short: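 Library compounds in DMSO (23 nl by pintool, 8 concentrations, final 0.5 nM to 46 µM) were applied for 24 or 48 hrs to MTT mouse pheochromocytoma cells that had been cultured overnight at 37°C, 5% CO2 in white 1536-well plates. Cell viability was measured by CellTiter-Glo ATP luminescence, read after 15 minutes, with positive-control wells set at 100% and DMSO wells at 0%. A four-parameter logistic fit of the normalised signals yielded the IC50.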

| IC50 of cell viability [µM] | SMILES |
| --- | --- |
| > 46 | CCCC(=O)O[C@]1(C(=O)CCl)C(C)CC2C3CCC4=CC(=O)C=CC4(C)[C@@]3(F)C(=O)CC21C (some centres undefined) [CLOBETASONE BUTYRATE] |
| > 46 | CC(CN(C)C)C(C)(O)Cc1ccc(Cl)cc1 (centres undefined) [CLOBUTINOL HYDROCHLORIDE] |
| > 46 | CCN(CC)CCNC(=O)COc1ccc(Cl)cc1 [CLOFEXAMIDUM] |
| > 46 | CC(C)(C)CC(C)(C)c1ccc(O)c(Cc2ccc(Cl)cc2Cl)c1 [CLOFOCTOL] |
| > 46 | CN(C)CCCN1c2ccccc2CCc2ccc(Cl)cc21 [CLOMIPRAMINE] |
| > 46 | Clc1cccc(Cl)c1N=C1NCCN1 [CLONIDINE] |
| > 46 | Cc1c(Cl)cccc1Nc1ncccc1C(=O)O [CLONIXINUM] |
| > 46 | COC(=O)C(c1ccccc1Cl)N1CCc2sccc2C1 (centres undefined) [CLOPIDOGREL BISULFATE] |
| > 46 | O=C([O-])CCC/C=C\C[C@@H]1[C@@H](/C=C/[C@@H](O)COc2cccc(Cl)c2)[C@H](O)C[C@@H]1O [CLOPROSTENOL SODIUM] |
| > 46 | CCOC(=O)COC1=C(Cl)C2=C(C=C1)\C(=C(CCN(CC)CC)/C(=O)O2)C [CLORICROMENUM] |
| > 46 | CN1CCN(CC1)\C2=N\C3=C(NC4=C2C=CC=C4)C=CC(=C3)Cl [CLOZAPINE] |
| > 46 | CCc1cccc(N(C)C(=N)Nc2cccc3ccccc23)c1.Cl [CNS-1102] |
| > 46 | CCC(C)C(=O)OC1CC/C=C2/C=C\C(C)C(CCC3CC(O)CC(=O)O3)[C@H]12 (some centres undefined) [COMPACTIN] |

The next lines start with the compound.

| SMILES | IC50 of cell viability [µM] |
| --- | --- |
| CCOP(=O)(OCC)O/C(=C/Cl)c1ccc(Cl)cc1Cl [CLOFENVINFOSUM] | > 46 |
| Cc1nc(C)c(Cl)c(O)c1Cl [CLOPIDOL] | > 46 |
| CC(C)NCC(O)c1ccccc1Cl (centres undefined) [CLORPRENALINE HYDROCHLORIDE] | > 46 |
| CC1CNC(=O)CCC2(C)C(CC(N)=O)C3[N+]/4=C2/C(=C\5C(CCC(N)=O)C(C)(C)C\6=[N+]5[Co-3]47(CC8OC(C(O)C8O)[N]9C=NC%10=C(N)N=CN=C9%10)(N%11/C(=C(C)\C%12=[N+]7\C(=C6)C(CCC(N)=O)C%12(C)CC(N)=O)C(CCC(N)=O)C(C)(CC(N)=O)C3%11C)[N+]%13=C[N](C%14O[C@H](CO)[C@@H](O[P]([O-])(=O)O1)C%14O)C%15=C%13C=C(C)C(=C%15)C)C (some centres undefined) [COENZYME B12] | > 46 |
| CCCCCCCCCCCCCCCC(=O)OCC(COP(=O)(O)OCC[N+](C)(C)C)OC(=O)CCCCCCCCCCCCCCC (centres undefined) [COLFOSCERIL PALMITATE] | > 46 |
| CCC(C)C1NC(=O)C(CCNCS(=O)(=O)[O-])NC(=O)C(NC(=O)C(CCNCS(=O)(=O)[O-])NC(=O)C(NC(=O)C(CCNCS(=O)(=O)[O-])NC(=O)CCCCC(C)C)C(C)O)CCNC(=O)C(C(C)O)NC(=O)C(CCNCS(=O)(=O)[O-])NC(=O)C(CCNCS(=O)(=O)[O-])NC(=O)C(C(C)CC)NC1=O.[Na+].[Na+].[Na+].[Na+].[Na+] (centres undefined) [COLISTIMETHATE SODIUM] | > 46 |
| CC1C2CCC3C4C\C=C/5CC(CC[C@@]5(C)C4CC[C@]23CN1C)N(C)C (some centres undefined) [CONESSINE] | > 46 |
| CCCC1CCCCN1 (centres undefined) [CONIINE] | > 46 |
| C[C@]\12CCC(=O)\C=C1CCC3C4CC[C@](O)(C(=O)CO)[C@]4(C)CC(=O)C23 (some centres undefined) [CORTISONE] | > 46 |
| CCO[P](=S)(OCC)OC1=CC=C2\C(=C(Cl)/C(=O)OC2=C1)C [COUMOPHOS] | > 46 |
| CC1(C)CCC(NC(=O)[C@@H](N)CCC(=O)O)CC1 [CR 2249] | > 46 |
